Data from patent US11059852B2, “Ergostenol glycoside derivative” (ST PHARM CO., LTD., priority 2017, dated 2021).

What was measured:
Assay type in all cases: cell-based
[1] = test system: CCL17 expression in HaCaT cells; experiment: CCL17 gene expression (RT-PCR) in HaCaT cells induced by TNF-α and/or IFN-γ; conditions: HaCaT cells, 2.5, 5, 10 and 20 μg/mL for one hour, then TNF-α, IFN-γ, or both, 18 hours; RNA level, FIG. 2
Method: (§1) 1×10^6 HaCaT cells were moved into a 6-well microplate, cultured in DMEM containing 10% (v/v) FBS for 12 hours, washed with PBS, and then treated in 2 mL of serum free media with ergostenol at each concentration of 2.5, 5, 10 and 20 μg/mL for one hour. After that, the cells were treated with inflammation-inducing molecules, i.e., TNF-α, IFN-γ, or TNF-α and IFN-γ, and then cultured for 18 hours. To identify a change in CCL17 and CCL22 expressions at an RNA level, RNAs were isolated with Trizol reagent kit (Invitrogen, Gaithersburg, Md.) according to a manufacturer's manual. A reverse transcription was performed with the isolated RNAs as a template to obtain cDNAs. A reverse transcription buffer solution (5 mM MgCl2, 1 mM dNTP, 2.5 U/μL reverse transcriptase, and 2.5 μM oligo (dT) 15 as a primer (omniscript RTkit, Qiagen)), 0.5 U of RNase inhibiter, 2.5 μM of oligo (dT) and 2.5 U of reverse transcriptase were added into 2 μg of […], and subjected to reaction at 37° C., such that the cDNAs were obtained. To quantify the obtained cDNAs, PCR was performed with the primers of a following table 1, after which the amplified DNAs were identified with 1% agarose gel.

[2] = test system: CCL17 expression in HaCaT cells; experiment: CCL17 protein in media (ELISA) of HaCaT cells induced by TNF-α and/or IFN-γ; conditions: HaCaT cells, 2.5, 5, 10 and 20 μg/mL for one hour, then TNF-α, IFN-γ, or both, 18 hours, FIG. 3
Method: (§2) Also, to figure out an effect of ergostenol at a protein level, HaCaT cells were treated with ergostenol at a concentration of 2.5, 5, 10 and 20 μg/mL for one hour, then treated with molecules related to inflammation induction, i.e., TNF-α, IFN-γ, or TNF-α and IFN-γ, and then cultured for 18 hours. With regard to CCL17 and CCL22, the amount of proteins present in media was identified with an ELISA kit (R&D Systems, Minneapolis, Minn., USA). Captured antibodies (anti-CCL17 antibody and anti-CCL22 antibody) at 2 μg/mL were inserted into a 96-well plate in an amount of 50 μL, respectively, subjected to coating for two hours, and then subjected to blocking with PBS containing 1% BSA for one hour. Then, a collected sample was inserted into each well in an amount of 100 μL, respectively, and subjected to reaction for two hours. The cells were washed three times with PBS-T, after which 50 μL of detector antibodies (anti-CCL17 antibody and anti-CCL22 antibody) were inserted into each well at 100 ng/well, and subjected to reaction for two hours. […] The cells were fully washed with PBS-T, after which a substrate solution (TMB) was added thereto, such that absorbance thereof was measured at 450 nm.

[3] = test system: CCL22 expression in HaCaT cells; experiment: CCL22 protein in media (ELISA) of HaCaT cells induced by TNF-α and/or IFN-γ; conditions: HaCaT cells, 2.5, 5, 10 and 20 μg/mL for one hour, then TNF-α, IFN-γ, or both, 18 hours, FIG. 3
Method: as §2

[4] = test system: CCL22 expression in HaCaT cells; experiment: CCL22 gene expression (RT-PCR) in HaCaT cells induced by TNF-α and/or IFN-γ; conditions: HaCaT cells, 2.5, 5, 10 and 20 μg/mL for one hour, then TNF-α, IFN-γ, or both, 18 hours; RNA level, FIG. 2
Method: as §1

Ergostenol
decrease: level of CCL17 gene expression [1] | level of CCL17 protein expression [2] | level of CCL22 protein expression [3] | level of CCL22 gene expression [4]
